Results from patent US10350210B2, “EGFR and ALK dual inhibitor” (PRECEDO PHARMACEUTICALS CO., LTD, priority 2015, dated 2019).
Like-named read-outs stand apart in the source and are kept apart here.

Tests used:
NCI-H1975 = experiment: Growth of cancer cells (Cell Titer-Glo viability), NCI-H1975; type: cell-based; settings: Homo sapiens; NCI-H1975 (EGFR L858R/T790M double mutant), 72 hrs
From the text: (§1) By testing the effect of the novel kinase inhibitors on the proliferation of cancer cells, the selectivity of the compounds of the present disclosure in inhibiting the proliferation of cancer cells was further assessed. In this example, human non-small cell lung cancer cell NCI-H1975 (expressing EGFR L858R/T790M double mutant gene), human skin squamous carcinoma cell A431 (expressing wild-type EGFR gene), non-small cell lung cancer NCI-H3255 (expressing EGFR L858R mutant gene), non-small cell lung cancer cell NCI-H3122 (expressing ALK gene), human non-small cell lung cancer cell A549 (expressing wild-type EGFR gene), human non-small cell lung cancer cell NCI-H2122 (expressing wild-type EGFR gene), human non-small cell lung cancer cell NCI-H460 (expressing wild-type EGFR gene), human non-small cell lung cancer cell PC-9 (expressing EGFR delE746_A750 mutant gene), Chinese hamster ovary cell CHO (Cricetulus griseus, hamster, Chinese, ovary), Chinese hamster lung cell CHL, human non-small cell lung cancer cell HCC827 (expressing mutant EGFR del19 gene), human lung adenocarcinoma cell HCC4006 (expressing mutant EGFR del19 gene), human non-small cell lung cancer cell NCI-H2228 (expressing wild-type ALK gene), and mouse primary B cell BaF3 were used, and the above cells were all purchased from ATCC (US). In addition, mouse BaF3-TEL-ALK (stably expressing ALK kinase), mouse BaF3-ALK-F1174L (stably expressing mutant ALK F1174L kinase), mouse BaF3-NPM-ALK (stably expressing ALK kinase), mouse BaF3-TEL-EGFR (stably expressing EGFR kinase), mouse BaF3-TEL-EGFR-T790M (stably expressing EGFR T790M mutant kinase), mouse BaF3-FL-EGFR-Del19 (stably expressing EGFR delE746_A750 mutant kinase), mouse BaF3-TEL-EGFR-L858R (stably expressing EGFR L858R mutant kinase), mouse BaF3-FL-EGFR-T790M-L858R (stably expressing EGFR T790M/L858R mutant kinase), mouse BaF3-TEL-INSR (stably expressing INSR protein), mouse BaF3-TEL-IGF1R (stably expressing IGF1R Protein), mouse BaF3-EML4-ALK (stably expressing EML4-ALK Protein), mouse BaF3-TEL-JAK3 (stably expressing JAK3 kinase protein), mouse BaF3-TEL-CSF1R (stably expressing CSF1R protein), and mouse BaF3-TEL-ALK-F1196M (stably expressing ALK F1196M mutant kinase) were also used in this example. The above cell lines were all established by our laboratory via the following process: kinase proteins or protein domain sequences of human ALK, ALK F1174L, EGFR, EGFR T790M, EGFR delE746_A750, EGFR L858, EGFR T790M/L858R, INSR, IGF1R, EML4-ALK, JAK3, CSF1R, ALK F1196M were amplified respectively by PCR, and were respectively inserted into MSCV-Puro vector (Clontech) with N-terminal TEL fragments and/or NPM fragments and/or TPR fragments; the resultants were stably transfected into mouse BaF3 cells by the means of retrovirus, and the IL-3 growth factors were removed, and eventually the ALK, ALK F1174L, EGFR, EGFR T790M, EGFR delE746_A750, EGFR L858, EGFR T790M/L858R, INSR, IGF1R, EML4-ALK, JAK3, CSF1R, ALK F1196M-transferred protein dependent cell lines were obtained.
(§2) The number of viable cells was determined quantitatively by a microplate reader using Cell Titer-Glo® (Promega, US) chemiluminescence cell viability assay kit.

PC-9 = experiment: Growth of cancer cells (Cell Titer-Glo viability), PC-9; type: cell-based; settings: Homo sapiens; PC-9 (EGFR delE746_A750 mutant), 72 hrs
From the text: as §1, §2

A431 = experiment: Growth of cancer cells (Cell Titer-Glo viability), A431; type: cell-based; settings: Homo sapiens
From the text: as §1, §2

CHO = experiment: Cell growth (Cell Titer-Glo viability), CHO; type: cell-based, Chinese hamster; settings: Cricetulus griseus
From the text: as §1, §2

CHL = experiment: Cell growth (Cell Titer-Glo viability), CHL; type: cell-based, Chinese hamster; settings: Cricetulus griseus
From the text: as §1, §2

NCI-H2122 = experiment: Growth of cancer cells (Cell Titer-Glo viability), NCI-H2122; type: cell-based; settings: Homo sapiens; NCI-H2122 (wild-type EGFR), 72 hrs
From the text: as §1, §2

A549 = experiment: Growth of cancer cells (Cell Titer-Glo viability), A549; type: cell-based; settings: Homo sapiens; A549 (wild-type EGFR), 72 hrs
From the text: as §1, §2

HCC827 = experiment: Growth of cancer cells (Cell Titer-Glo viability), HCC827; type: cell-based; settings: Homo sapiens; HCC827 (mutant EGFR del19), 72 hrs
From the text: as §1, §2

NCI-H3122 = experiment: Growth of cancer cells (Cell Titer-Glo viability), NCI-H3122; type: cell-based; settings: Homo sapiens
From the text: as §1, §2

NCI-H2228 = experiment: Growth of cancer cells (Cell Titer-Glo viability), NCI-H2228; type: cell-based; settings: Homo sapiens; NCI-H2228 (wild-type ALK), 72 hrs
From the text: as §1, §2

BaF3 = experiment: Cell growth (Cell Titer-Glo viability), BaF3; type: cell-based; settings: BaF3 mouse primary B cell, 72 hrs
From the text: as §1, §2

BaF3-TEL-ALK = experiment: Cell growth (Cell Titer-Glo viability), BaF3-TEL-ALK; type: cell-based; settings: Mus musculus; BaF3-TEL-ALK (stably expressing ALK kinase), 72 hrs
From the text: as §1, §2

BaF3-ALK-F1174L = experiment: Cell growth (Cell Titer-Glo viability), BaF3-ALK-F1174L; type: cell-based; settings: Mus musculus; BaF3-ALK-F1174L (mutant ALK F1174L kinase), 72 hrs
From the text: as §1, §2

BaF3-TEL-EGFR-T790M = experiment: Cell growth (Cell Titer-Glo viability), BaF3-TEL-EGFR-T790M; type: cell-based; settings: Mus musculus; BaF3-TEL-EGFR-T790M (EGFR T790M mutant kinase), 72 hrs
From the text: as §1, §2

BaF3-FL-EGFR-Del19 = experiment: Cell growth (Cell Titer-Glo viability), BaF3-FL-EGFR-Del19; type: cell-based; settings: Mus musculus; BaF3-FL-EGFR-Del19 (EGFR delE746_A750 mutant kinase), 72 hrs
From the text: as §1, §2

BaF3-NPM-ALK = experiment: Cell growth (Cell Titer-Glo viability), BaF3-NPM-ALK; type: cell-based; settings: Mus musculus; BaF3-NPM-ALK (stably expressing ALK kinase), 72 hrs
From the text: as §1, §2

[1] = A-431, A431 (wild-type EGFR), 72 hrs, read-out: GI50
[2] = CHO Chinese hamster ovary cell, 72 hrs, read-out: GI50
[3] = CHL Chinese hamster lung cell, 72 hrs, read-out: GI50
[4] = NCI-H3122 (expressing ALK gene), 72 hrs, read-out: GI50

Row | GI50 (NCI-H1975) [nM] | GI50 (PC-9) [nM] | GI50 (A431; [1]) [nM] | GI50 (NCI-H2122) [nM] | GI50 (A549) [nM] | GI50 (HCC827) [nM] | GI50 (NCI-H3122; [4]) [nM] | GI50 (NCI-H2228) [nM] | GI50 (BaF3) [nM] | GI50 (BaF3-TEL-ALK) [nM] | GI50 (BaF3-ALK-F1174L) [nM] | GI50 (BaF3-TEL-EGFR-T790M) [nM] | GI50 (BaF3-FL-EGFR-Del19) [nM] | GI50 (BaF3-NPM-ALK) [nM] | GI50 (A431; A-431, 72 h) [nM] | GI50 (NCI-H3122; NCI-H3122, 72 h) [nM] | SMILES | GI50 (CHO; [2]) [nM] | GI50 (CHL; [3]) [nM] | GI50 (CHO; CHO, 72 h) [nM] | GI50 (CHL; CHL, 72 h) [nM]
1 | 24 | 45 | 430 | 1300 | 2200 | 16 | 7 | 7.4 | 2000 | 8 | 1500 | 62 | 15 |  |  |  | C=CC(=O)Nc1cc(Nc2ncc(Cl)c(Nc3ccccc3S(=O)(=O)C(C)C)n2)c(OC)cc1N1CCNCC1 [Compound 4, N-(5-(5-chloro-4-(2-(isopropylsulfonyl)phenylamino)pyrimidin-2-ylamino)-4-methoxy-2-(piperazin-1-yl)phenyl) acrylamide] | > 10000 | 4900 |  | 
2 | 1200 | 90 | 840 | 1030 | 360 | 110 |  | 31 |  |  | 630 |  |  | 1 |  |  | C=CC(=O)Nc1cc(Nc2ncc(Cl)c(Nc3ccccc3S(=O)(=O)C(C)C)n2)c(OC)cc1N1CCOCC1 [Compound 7, N-(5-(5-chloro-4-(2-(isopropylsulfonyl)phenylamino)pyrimidin-2-ylamino)-4-methoxy-2-morpholinylphenyl) acrylamide] | 2900 | 9100 |  | 
3 | 41 | 12 | 470 |  | 630 | 15 | < 0.3 | 5.9 | 1400 | > 10000 |  |  |  | < 0.3 |  |  | C=CC(=O)Nc1cc(Nc2ncc(Cl)c(Nc3ccccc3S(=O)(=O)C(C)C)n2)c(OC)cc1N1CCN(CCOC)CC1 [Compound 13, N-(5-(5-chloro-4-(2-(isopropylsulfonyl)phenylamino)pyrimidin-2-ylamino)-4-methoxy-2-(4-(2-methoxyethyl)piperazin-1-yl)phenyl)acrylamide] | 470 | 3700 |  | 
4 | 100 |  | 350 | 4300 | 130 | 32 | < 0.3 | 28 |  |  |  |  |  | < 0.3 |  |  | C=CC(=O)Nc1cc(Nc2ncc(Cl)c(Nc3ccccc3S(=O)(=O)C(C)C)n2)c(OC)cc1N1CCN(CC2CC2)CC1 [Compound 14, N-(5-(5-chloro-4-(2-(isopropylsulfonyl)phenylamino)pyrimidin-2-ylamino)-2-(4-(cyclopropylmethyl)piperazin-1-yl)-4-methoxyphenyl)acrylamide] | 300 | 2000 |  | 
5 | 77 | 36 | 370 |  | 390 | 38 | < 0.3 | 70 | 300 | 7.5 |  |  |  | < 0.3 |  |  | C=CC(=O)Nc1cc(Nc2ncc(Cl)c(Nc3ccccc3S(=O)(=O)C(C)C)n2)c(OC)cc1N1CCN(C2CCCCC2)CC1 [Compound 15, N-(5-(5-chloro-4-(2-(isopropylsulfonyl)phenylamino)pyrimidin-2-ylamino)-2-(4-cyclohexylpiperazin-1-yl)-4-methoxyphenyl)acrylamide] | 170 | 1400 |  | 
6 | 310 | 230 | 4200 | 1100 | 4500 |  | 20 | 66 | 4100 | 16 |  |  |  | 16 |  |  | C=CC(=O)Nc1cc(Nc2ncc(Cl)c(Nc3ccccc3S(=O)(=O)C(C)C)n2)c(OC)cc1N1CCN(Cc2ccccc2)CC1 [Compound 16, N-(2-(4-benzylpiperazin-1-yl)-5-(5-chloro-4-(2-(isopropylsulfonyl)phenylamino)pyrimidin-2-ylamino)-4-methoxyphenyl)acrylamide] | 1300 | > 10000 |  | 
7 | 260 | 160 | 4600 | 3400 | > 10000 | 46 | 770 | 170 | 4300 | 180 | 1700 | 80 | < 0.3 |  |  |  | C=CC(=O)Nc1cc(Nc2ncc(Cl)c(Nc3cccc(C(F)(F)F)c3)n2)c(OC)cc1N1CCN(C)CC1 [Compound 18, N-(5-(5-chloro-4-(3-(trifluoromethyl)phenylamino)pyrimidin-2-ylamino)-4-methoxy-2-(4-methylpiperazin-1-yl)phenyl)acrylamide] | 5400 | 4200 |  | 
8 | 140 | 71 | 71 | 621 | 480 | 64 |  | 31 |  |  | 1000 |  |  | 1 |  |  | C=CC(=O)Nc1cc(Nc2ncc(Cl)c(Nc3ccccc3S(=O)(=O)C(C)C)n2)c(OC)cc1N1CCN[C@H](C)C1 [Compound 28, (R)—N-(5-(5-chloro-4-(2-(isopropylsulfonyl)phenylamino)pyrimidin-2-ylamino)-4-methoxy-2-(3-methylpiperazin-1-yl)phenyl)acrylamide] | 1700 | 3300 |  | 
9 | 120 | 62 | 100 | 680 | 690 | 59 |  | 73 |  |  | 950 |  |  | 3 |  |  | C=CC(=O)Nc1cc(Nc2ncc(Cl)c(Nc3ccccc3S(=O)(=O)C(C)C)n2)c(OC)cc1N1CCN[C@@H](C)C1 [Compound 29, (S)—N-(5-(5-chloro-4-(2-(isopropylsulfonyl)phenylamino)pyrimidin-2-ylamino)-4-methoxy-2-(3-methylpiperazin-1-yl)phenyl)acrylamide] | 1500 | 3700 |  | 
10 |  |  |  |  |  |  |  |  |  |  |  |  |  |  | 1000 | 73 | C[C@@H](Oc1cc(-c2cnn(C3CCNCC3)c2)cnc1N)c1c(Cl)ccc(F)c1Cl [Crizotinib, reference compound] |  |  | 6400 | 1900
